Values belong to the molecule of their own block, whether it stands above or below them. The source made the active and inactive calls. The calls are words filed in the database; no cut-off is given here.
Assays:
[1] = tested on: AGS; assay: Cytotoxicity against human AGS cells after 72 hrs by CCK8 assay; type: functional, cell-based
[2] = tested on: GES1; assay: Cytotoxicity against human GES-1 cells after 72 hrs by CCK8 assay; type: cell-based; conditions: GES1, 72 h
[3] = tested on: MGC-803; assay: Cytotoxicity against human MGC803 cells after 72 hrs by CCK8 assay; type: functional, cell-based; conditions: for IC50: MGC-803, 72 h
[4] = tested on: HGC-27; assay: Cytotoxicity against human HGC27 cells after 72 hrs by CCK8 assay; type: functional, cell-based; conditions: for IC50: HGC-27, 72 h
[5] = tested on: BGC-823; assay: Cytotoxicity against human BGC823 cells after 72 hrs by CCK8 assay; type: functional, cell-based; conditions: for IC50: BGC-823, 72 h
[6] = tested on: MGC-803; assay: Induction of cell cycle arrest in human MGC803 cells assessed as accumulation of cells at G1 phase at 2 uM incubated for 24 hrs propidium iodide-A staining-based flow cytometric analysis (reference value: 52%); type: functional
[7] = tested on: MGC-803; assay: Induction of apoptosis in human MGC803 cells assessed as early apoptotic cells at 5 uM incubated for 48 hrs by Annexin V-FITC/propidium iodide staining-based flow cytometric analysis (reference value: 1.83%); type: functional
[8] = tested on: MGC-803; assay: Induction of apoptosis in human MGC803 cells assessed as late apoptotic cells at 10 uM incubated for 48 hrs by Annexin V-FITC/propidium iodide staining-based flow cytometric analysis (reference value: 0.84%); type: functional
[9] = tested on: MGC-803; assay: Induction of cell cycle arrest in human MGC803 cells assessed as accumulation of cells at S phase at 2 uM incubated for 24 hrs propidium iodide-A staining-based flow cytometric analysis (reference value: 17%); type: functional
[10] = tested on: MGC-803; assay: Induction of apoptosis in human MGC803 cells assessed as necrotic cells at 10 uM incubated for 48 hrs by Annexin V-FITC/propidium iodide staining-based flow cytometric analysis (reference value: 0.18%); type: functional
[11] = tested on: MGC-803; assay: Induction of apoptosis in human MGC803 cells assessed as necrotic cells at 5 uM incubated for 48 hrs by Annexin V-FITC/propidium iodide staining-based flow cytometric analysis (reference value: 0.18%); type: functional
[12] = tested on: MGC-803; assay: Induction of cell cycle arrest in human MGC803 cells assessed as accumulation of cells at G2/M phase at 20 uM incubated for 24 hrs propidium iodide-A staining-based flow cytometric analysis (reference value: 31%); type: functional
[13] = tested on: MGC-803; assay: Induction of cell cycle arrest in human MGC803 cells assessed as accumulation of cells at S phase at 5 uM incubated for 24 hrs propidium iodide-A staining-based flow cytometric analysis (reference value: 17%); type: functional
[14] = tested on: MGC-803; assay: Induction of apoptosis in human MGC803 cells assessed as late apoptotic cells at 20 uM incubated for 48 hrs by Annexin V-FITC/propidium iodide staining-based flow cytometric analysis (reference value: 0.84%); type: functional
[15] = tested on: MGC-803; assay: Induction of apoptosis in human MGC803 cells assessed as viable cells at 20 uM incubated for 48 hrs by Annexin V-FITC/propidium iodide staining-based flow cytometric analysis (reference value: 97.15%); type: functional; conditions: MGC-803, 48 h, read-out: Activity
[16] = tested on: MGC-803; assay: Induction of apoptosis in human MGC803 cells assessed as PARP cleavage at 20 uM incubated for 24 hrs by Western blot analysis; type: functional, cell-based
[17] = tested on: MGC-803; assay: Induction of apoptosis in human MGC803 cells assessed as early apoptotic cells at 2 uM incubated for 48 hrs by Annexin V-FITC/propidium iodide staining-based flow cytometric analysis (reference value: 1.83%); type: functional
[18] = tested on: MGC-803; assay: Induction of cell cycle arrest in human MGC803 cells assessed as accumulation of cells at G1 phase at 10 uM incubated for 24 hrs propidium iodide-A staining-based flow cytometric analysis (reference value: 52%); type: functional
[19] = tested on: MGC-803; assay: Induction of cell cycle arrest in human MGC803 cells assessed as accumulation of cells at G2/M phase at 5 uM incubated for 24 hrs propidium iodide-A staining-based flow cytometric analysis (reference value: 31%); type: functional
[20] = tested on: MGC-803; assay: Induction of cell cycle arrest in human MGC803 cells assessed as accumulation of cells at G1 phase at 5 uM incubated for 24 hrs propidium iodide-A staining-based flow cytometric analysis (reference value: 52%); type: functional
[21] = target: Signal transducer and activator of transcription 3 (Homo sapiens) (UniProt P40763); assay: Inhibition of STAT3 phosphorylation in human MGC803 cells at 2 to 20 uM incubated for 24 hrs by Western blot analysis; type: cell-based; conditions: MGC-803
Chain of Signal transducer and activator of transcription 3 (Homo sapiens) (P40763 whole entry): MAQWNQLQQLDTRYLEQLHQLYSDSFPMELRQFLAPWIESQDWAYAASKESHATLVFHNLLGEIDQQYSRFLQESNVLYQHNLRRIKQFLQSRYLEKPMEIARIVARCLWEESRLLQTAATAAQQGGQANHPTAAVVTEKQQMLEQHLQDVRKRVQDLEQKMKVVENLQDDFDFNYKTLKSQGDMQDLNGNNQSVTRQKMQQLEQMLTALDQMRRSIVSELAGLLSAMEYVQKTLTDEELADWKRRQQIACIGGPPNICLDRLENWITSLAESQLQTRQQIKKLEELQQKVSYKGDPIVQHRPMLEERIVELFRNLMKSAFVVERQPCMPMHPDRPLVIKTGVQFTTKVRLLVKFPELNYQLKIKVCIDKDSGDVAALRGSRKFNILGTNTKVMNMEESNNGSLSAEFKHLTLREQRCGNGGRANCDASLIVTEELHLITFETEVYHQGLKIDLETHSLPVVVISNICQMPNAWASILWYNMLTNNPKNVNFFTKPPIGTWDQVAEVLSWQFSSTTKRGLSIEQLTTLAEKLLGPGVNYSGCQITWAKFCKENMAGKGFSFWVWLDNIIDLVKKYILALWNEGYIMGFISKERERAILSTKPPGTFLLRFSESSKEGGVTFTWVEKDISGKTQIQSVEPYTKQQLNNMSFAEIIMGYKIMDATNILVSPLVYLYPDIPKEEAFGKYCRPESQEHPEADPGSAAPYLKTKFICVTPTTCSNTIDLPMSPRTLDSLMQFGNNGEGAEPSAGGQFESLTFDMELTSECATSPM

[22] = tested on: MGC-803; assay: Induction of apoptosis in human MGC803 cells assessed as late apoptotic cells at 5 uM incubated for 48 hrs by Annexin V-FITC/propidium iodide staining-based flow cytometric analysis (reference value: 0.84%); type: functional
[23] = tested on: MGC-803; assay: Induction of apoptosis in human MGC803 cells assessed as viable cells at 10 uM incubated for 48 hrs by Annexin V-FITC/propidium iodide staining-based flow cytometric analysis (reference value: 97.15%); type: functional; conditions: MGC-803, 48 h, read-out: Activity
[24] = tested on: MGC-803; assay: Induction of cell cycle arrest in human MGC803 cells assessed as accumulation of cells at S phase at 10 uM incubated for 24 hrs propidium iodide-A staining-based flow cytometric analysis (reference value: 17%); type: functional
[25] = tested on: MGC-803; assay: Effect on total STAT3 expression in human MGC803 cells at 20 uM incubated for 24 hrs by Western blot analysis; type: cell-based; conditions: mgc-803, 24 h
[26] = tested on: MGC-803; assay: Induction of cell cycle arrest in human MGC803 cells assessed as accumulation of cells at S phase at 20 uM incubated for 24 hrs propidium iodide-A staining-based flow cytometric analysis (reference value: 17%); type: functional
[27] = tested on: MGC-803; assay: Induction of cell cycle arrest in human MGC803 cells assessed as accumulation of cells at G2/M phase at 2 uM incubated for 24 hrs propidium iodide-A staining-based flow cytometric analysis (reference value: 31%); type: functional
[28] = tested on: MGC-803; assay: Induction of apoptosis in human MGC803 cells assessed as early apoptotic cells at 10 uM incubated for 48 hrs by Annexin V-FITC/propidium iodide staining-based flow cytometric analysis (reference value: 1.83%); type: functional
[29] = tested on: MGC-803; assay: Induction of apoptosis in human MGC803 cells assessed as late apoptotic cells at 2 uM incubated for 48 hrs by Annexin V-FITC/propidium iodide staining-based flow cytometric analysis (reference value: 0.84%); type: functional
[30] = tested on: MGC-803; assay: Induction of apoptosis in human MGC803 cells assessed as viable cells at 5 uM incubated for 48 hrs by Annexin V-FITC/propidium iodide staining-based flow cytometric analysis (reference value: 97.15%); type: functional; conditions: MGC-803, 48 h, read-out: Activity
[31] = tested on: MGC-803; assay: Induction of apoptosis in human MGC803 cells assessed as necrotic cells at 2 uM incubated for 48 hrs by Annexin V-FITC/propidium iodide staining-based flow cytometric analysis (reference value: 0.18%); type: functional
[32] = tested on: MGC-803; assay: Induction of apoptosis in human MGC803 cells assessed as early apoptotic cells at 20 uM incubated for 48 hrs by Annexin V-FITC/propidium iodide staining-based flow cytometric analysis (reference value: 1.83%); type: functional
[33] = tested on: MGC-803; assay: Induction of apoptosis in human MGC803 cells assessed as viable cells at 2 uM incubated for 48 hrs by Annexin V-FITC/propidium iodide staining-based flow cytometric analysis (reference value: 97.15%); type: functional; conditions: MGC-803, 48 h, read-out: Activity
[34] = tested on: MGC-803; assay: Induction of cell cycle arrest in human MGC803 cells assessed as accumulation of cells at G2/M phase at 10 uM incubated for 24 hrs propidium iodide-A staining-based flow cytometric analysis (reference value: 31%); type: functional
[35] = tested on: MGC-803; assay: Induction of apoptosis in human MGC803 cells assessed as necrotic cells at 20 uM incubated for 48 hrs by Annexin V-FITC/propidium iodide staining-based flow cytometric analysis (reference value: 0.18%); type: functional
[36] = tested on: MGC-803; assay: Induction of cell cycle arrest in human MGC803 cells assessed as accumulation of cells at G1 phase at 20 uM incubated for 24 hrs propidium iodide-A staining-based flow cytometric analysis (reference value: 52%); type: functional

Compound: CC(=O)O[C@H]1C(=O)[C@@]2(C)[C@H]([C@H](OC(=O)c3ccccc3)[C@]3(O)C[C@H](OC(=O)[C@H](O)[C@@H](NC(=O)c4ccccc4)c4ccccc4)C(C)=C1C3(C)C)[C@]1(OC(C)=O)CO[C@@H]1C[C@@H]2O [PACLITAXEL]
IC50 [1]: 53 nM
IC50 [2]: 7.9 nM
IC50 [3]: 3.8 nM
IC50 [4]: 8.4 nM
IC50 [5]: 1.3 nM

inhibition [21]: Active
Compound: Cc1c2c(c(O)c3c1[C@H](C)[C@@H](C)O3)/C(=C/c1ccccc1)C(=O)O2
Activity [6]: 50%
Activity [7]: 0.78%
Activity [8]: 0.39%
Activity [9]: 16%
Activity [10]: 0.59%
Activity [11]: 0.26%
Activity [12]: 24%
Activity [13]: 16%
Activity [14]: 1.51%
viability at 20 µM [15]: 89.4%
Activity [16]: Active
Activity [17]: 0.72%
Activity [1]: Dose-dependent effect
IC50 [1]: 8200 nM
Activity [18]: 49%
Activity [19]: 36%
Activity [20]: 48%
Activity [22]: 0.24%
viability at 10 µM [23]: 97.1%
IC50 [2]: 29000 nM
Activity [24]: 18%
Activity [25]: Toxic
Activity [26]: 23%
Activity [3]: Dose-dependent effect
IC50 [3]: 7000 nM
Activity [27]: 34%
Activity [28]: 1.95%
Activity [29]: 0.34%
viability at 5 µM [30]: 98.7%
Activity [31]: 0.54%
Activity [4]: Dose-dependent effect
IC50 [4]: 3400 nM
Activity [32]: 7.57%
viability at 2 µM [33]: 98.4%
Activity [34]: 33%
Activity [35]: 1.55%
Activity [36]: 53%
Activity [5]: Dose-dependent effect
IC50 [5]: 6200 nM

— ChEMBL document CHEMBL4622877, “Aspeterreurone A, a Cytotoxic Dihydrobenzofuran-Phenyl Acrylate Hybrid from the Deep-Sea-Derived Fungus Aspergillus terreus CC-S06-18” (J Nat Prod, 2020)
